Data as given in publication PMC3012785 (Journal of neurochemistry, 2010).
Ends that are not written are not given here.

Conditions: rat, in vivo

Work on RHAYRSMAEWGFLYS [PGD3-4] yielded a Half-life of 2.45 h.
